From article PMC7570852, “Ruthenium(II)/(III) DMSO-Based Complexes of 2-Aminophenyl Benzimidazole with In Vitro and In Vivo Anticancer Activity” (Molecules, 2020)
Marks after values point to notes of the source that are not given here.

Legend:
[1] = system: human breast cancer (MCF7) cells; test: MTT cell viability assay, MCF7; assay type: cell-based; conditions: 24 h
Experimental: (§1) The cytotoxic effect of the Hapbim ligand and its complexes (1) and (2) on human breast cancer (MCF7), human colorectal cancer (Caco2), and human normal liver (THLE-2) cell lines was evaluated by the MTT assay. The cells were cultured in a 96-well plate (1 × 10^4 cells/well, 100 μL/well) containing DMEM medium provided with 10% fetal bovine serum, and 1% penicillin/streptomycin. Then, the cells were incubated at 37 °C for 24 h in a CO2 incubator under 5% CO2, 95% air until reaching a confluence of 70–80%. A 20 μL volume of each compound at different concentrations (from 5 to 400 μM for the cancer cell and from 600 to 1000 μM for the normal cells) was added and the cells were re-incubated for a further 24 h. After the incubation period, the cells were incubated again with 5 mg/mL of MTT for 4 h and then the medium was replaced with 100 μL DMSO and vortexed for 20 min. Finally, the absorbance was recorded at 570 nm using the microplate reader. […] To calculate the cell inhibition percentage, the following equation was used:% Cell inhibition = 100 − % cell viability ((At − Ab)/(Ac − Ab)) × 100%)(4) where At is the absorbance value of tested compound; Ab is the absorbance value of blank; Ac is the absorbance value of the control.

[2] = system: human colorectal cancer (Caco2) cells; test: MTT cell viability assay, Caco2; assay type: cell-based
Experimental: as §1

Caco2 cells = test: Cell-cycle analysis by flow cytometry (PI), Caco2; assay type: cell-based, human; conditions: Caco2, 117.6 μg/mL, 24 h
Experimental: The Ru(III) complex (2) (117.6 μg/mL) was added to MCF7 and Caco2 cells at a confluence of 70–80% and incubated for 24 h (in a CO2 incubator). The cells were then digested with warm trypsin-EDTA + warm PBS-EDTA (0.25%) (500 + 500 μL) with incubation for 10 min at 37 °C. The mixture was centrifuged (450 rpm) for 5 min, then the supernatant was removed. The mixture was washed twice in warm PBS and the cell pellet was re-suspended in 500 µl warm PBS, centrifuged and the supernatant decanted. A volume of 150 μL PBS + 350 μL ice-cold 70% ethanol was added and incubated at 4 °C for 1 h to fix the cells. To remove ethanol, the mixture was centrifuged at 350 rpm for 10 min and then the supernatant was removed. The mixture was washed twice in warm PBS and the cells were re-suspended in 500 μL of warm PBS, centrifuged, and the supernatant was removed. The cells were resuspended in 100 μL PBS and stored at 4 °C for up to four days. In darkness, the cells were stained with 100 µL of propidium iodide (PI) solution + 50 µL RNase A solution (100 µg/mL) and incubated in darkness for 30–60 min. The stained cells were read in an Attune flow cytometer (Applied Bio-system, Foster City, CA, USA).

[3] = Median lethal dose (LD50) determination; assay type: in vivo; conditions: mice, intraperitoneal, mortality after 24 h
Experimental: The LD50 was estimated by the method of Enegide. Briefly, different concentrations of compound (2) was prepared by dissolving a certain weight in 2% DMSO and completed with sterile saline then vortexed and left for 5 min until the solution was clear. Three hundred µL of each concentration (10, 20, 40, 60, 80, 100, 120, and 140 mg/kg) was injected intraperitoneally to eight groups of mice (each one containing four mice), then mortality was recorded after 24 h.

[4] = system: Ehrlich ascites carcinoma (EAC); test: EAC mouse model: abdominal size and peritoneal angiogenesis; assay type: in vivo, mice; conditions: for mean abdominal circumference: EAC mice
Experimental: (§2) The mice were divided into the following eight groups (10 mice in each group): • Control group: Mice were intraperitoneally injected with a vehicle (2% DMSO + sterile saline) for 12 days. • I, II, and III control groups: Healthy normal mice were intraperitoneally injected with 6, 12, and 18 mg/kg of complex (2), respectively, for 12 days. • EAC group: Mice were intraperitoneally injected by a single dose of 2.5 × 10^6 viable Ehrlich ascites carcinoma (EAC) cells in PBS. In brief, EAC cells were withdrawn from the EAC mouse’s intraperitoneal cavity, washed, and centrifuged three times with sterile saline. Then, the pellets were suspended in sterile PBS and counted by the trypan blue exclusion assay, which confirmed that the viability of the cells was 98%. • I, II, and III treated groups: Firstly, 30 healthy mice were intraperitoneally injected with a single dose of 2.5 × 10^6 viable EAC cells. After one day; the mice were divided into I, II, and III treated groups (10 mice each group), intraperitoneally injected with 6, 12, and 18 mg/kg Ru(III) complex, respectively, for 12 days.
(§3) The animals were monitored for EAC growth by measuring abdominal size. At the end of the experiment all animals were fasted overnight then sacrificed. Serum samples were collected to study the biological parameters such as liver and kidney function as well as antioxidant enzyme activity. Liver samples from each group were frozen immediately in liquid nitrogen for molecular analysis.

[5] = Serum liver and kidney function tests, healthy mice; assay type: in vivo; conditions: mean ± SEM
Experimental: as §2, §3
Liver function tests. Serum GPT and GOT activities were measured by the method of Murray with a standard kit. The enzyme activities were estimated by measuring the decrease in absorbance of NADH at 340 nm. Bilirubin concentration was estimated by the colorimetric method of Kaplan et al.. Albumin concentration was measured colorimetrically by the color change of bromocresol from yellow-green to green-blue.
Kidney function tests. Creatinine was estimated colorimetrically by reacting with alkaline picrate forming a red complex. Urea was hydrolyzed enzymatically into ammonia which reacts with several compounds to form a green complex that can be measured colorimetrically. Uric acid was estimated by the enzymatic method of Schultz.

[6] = II control 12 mg/kg i.p. 12 days
[7] = III control 18 mg/kg i.p. 12 days

Structure (SMILES): CS(C)=O.Nc1ccccc1-c1nc2ccccc2[nH]1.O.[Cl][Ru]([Cl])[Cl] [(2), [Ru(III)Cl3(DMSO)(Hapbim)]·H2O]
- IC50 MCF-7 [1]: 118 ± 8 µg/mL
- IC50 ([1]; read-out: IC50 MCF-7): 230 ± 10 µM
- IC50 ([2]; MTT, 24 h): 250 ± 10 µM
- IC50 Caco2 ([2]; MTT, 24 h): 129 ± 8 µg/mL
- Therapeutic index: IC50 of THLE-2 cell/IC50 of Caco2 ([2]; in vitro): 9.95
- cells in G0/G1 phase (Caco2 cells): 18%
- cells in G2/M phase (Caco2 cells): 62%
- cells in S phase (Caco2 cells): 20%
- LD50 [3]: 60 mg/kg
- peritoneal angiogenesis ([4]; EAC mice, 6, 12, 18 mg/kg treated groups vs EAC group): decreased in a dose-dependent manner
- mean abdominal circumference ([4]; I (6 mg/kg) i.p. for 12 days, untreated EAC 13.20 ± 0.03, control 7.06 ± 0.18): 9.6 ± 0.2 cm
- mean abdominal circumference ([4]; II (12 mg/kg) i.p. for 12 days): 7.30 ± 0.03 cm
- mean abdominal circumference ([4]; III (18 mg/kg) i.p. for 12 days): 7.10 ± 0.03 cm
- Albumin ([5]; I control 6 mg/kg i.p. 12 days): 2.3 ± 0.1 g/dL
- Bilirubin ([5]; I control 6 mg/kg i.p. 12 days): 0.15 ±0.02 ^b mg/dL
- Creatinine ([5]; I control 6 mg/kg i.p. 12 days): 0.37 ±0.1 ^b mg/dL
- GOT ([5]; I control 6 mg/kg i.p. 12 days): 41.8 ± 2.9 ^b U/L
- GPT ([5]; I control 6 mg/kg i.p. 12 days): 15.6 ± 1.6 ^b U/L
- Urea ([5]; I control 6 mg/kg i.p. 12 days): 33.5 ± 0.7 ^b mg/dL
- Uric Acid ([5]; I control 6 mg/kg i.p. 12 days): 2.9 ± 0.1 ^b mg/dL
- Albumin [5, 6]: 2.7 ± 0.1 ^b g/dL
- Bilirubin [5, 6]: 0.13 ± 0.02 ^b mg/dL
- Creatinine [5, 6]: 0.7 ± 0.02 mg/dL
- GOT [5, 6]: 54.9 ± 2.2 U/L
- GPT [5, 6]: 17.2 ± 0.5 ^b U/L
- Urea [5, 6]: 31.7 ± 1.2 ^b mg/dL
- Uric Acid [5, 6]: 2.97 ± 0.1 ^b mg/dL
- Albumin [5, 7]: 2.3 ± 0.1 g/dL
- Bilirubin [5, 7]: 0.26 ± 0.02 mg/dL
- Creatinine [5, 7]: 0.75 ± 0.02 mg/dL
- GOT [5, 7]: 68.8 ± 3.6 U/L
- GPT [5, 7]: 19.6 ± 0.3 U/L
- Urea [5, 7]: 36.7 ± 1.6 ^b mg/dL
- Uric Acid [5, 7]: 2.77 ± 0.1 ^b mg/dL
